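1) Cells in 96-well plates. 2) Compound, 48 h, 5 concentrations. 3) Linear interpolation between surrounding doses. 4) Unreached endpoint = highest concentration. GI50: concentration for 50% inhibition of growth.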 Active and inactive are the calls of the source. Cut-off read from the data, not from the text of the source: active = GI50 up to about 1.1 µM and inactive = higher.
Key:
Assay in all cases: NCI anticancer screen, dose series, 48 h
[1] = system: CCRF-CEM
[2] = system: HCT-15
[3] = system: SK-MEL-2
[4] = system: OVCAR-3
[5] = system: HL-60
[6] = system: SN12C
[7] = system: PC-3
[8] = system: MDA-N
[9] = system: SK-MEL-28
[10] = system: SNB-19
[11] = system: SW-620
[12] = system: MCF7
[13] = system: DU-145
[14] = system: ACHN
[15] = system: NCI-H23
[16] = system: RXF 393
[17] = system: HOP-62
[18] = system: 786-0
[19] = system: SK-MEL-5

SMILES	GI50 [1]	GI50 [2]	GI50 [3]	GI50 [4]	GI50 [5]	GI50 [6]	GI50 [7]	GI50 [8]	GI50 [9]	GI50 [10]	GI50 [11]	GI50 [12]	GI50 [13]	GI50 [14]	GI50 [15]	GI50 [16]	GI50 [17]	GI50 [18]	GI50 [19]
Cc1cc(CCC(=O)NCCNc2c3ccccc3nc3ccccc23)cc(C)c1O[Si](C)(C)C(C)(C)C	0.38 µM (active)	0.282 µM	1.91 µM (inactive)	1.96 µM (inactive)	1.52 µM (inactive)	15.5 µM (inactive)	1.55 µM (inactive)	0.399 µM (active)	1.92 µM (inactive)	1.85 µM (inactive)	0.215 µM (active)	0.242 µM (active)	1.1 µM (active)	1.66 µM (inactive)	1.93 µM (inactive)	1.5 µM (inactive)	1.51 µM (inactive)	0.39 µM (active)	–
CCC(=O)Nc1cccc(NC(=O)c2c(Cl)c(Cl)c(Cl)c(Cl)c2-c2nc3ccccc3[nH]2)c1	7.45 µM (inactive)	60.7 µM	> 100 µM (inactive)	> 100 µM (inactive)	43 µM (inactive)	> 100 µM (inactive)	44.8 µM (inactive)	22 µM (inactive)	> 100 µM (inactive)	1.03 µM (active)	> 100 µM (inactive)	12.7 µM (inactive)	> 100 µM (inactive)	80.7 µM (inactive)	> 100 µM (inactive)	21.6 µM (inactive)	–	84.9 µM (inactive)	> 100 µM (inactive)
CCN(CC)C(=O)N1CN(c2ccccc2)C2(CCN(CCCSc3ccc(F)cc3)CC2)C1=O	4.2 µM (inactive)	11 µM	7.16 µM (inactive)	5.13 µM (inactive)	5.37 µM (inactive)	9.18 µM (inactive)	6.56 µM (inactive)	6.15 µM (inactive)	18.4 µM (inactive)	9.79 µM (inactive)	6.75 µM (inactive)	4.19 µM (inactive)	5.14 µM (inactive)	3.01 µM (inactive)	7.83 µM (inactive)	16.2 µM (inactive)	–	12.8 µM (inactive)	3.66 µM (inactive)
COc1ccc(-c2csc(-n3c(-c4ccccc4)nc4c(Br)cc(Br)cc4c3=O)n2)cc1	13.1 µM (inactive)	19.3 µM	47.2 µM (inactive)	25.2 µM (inactive)	20.2 µM (inactive)	–	25.8 µM (inactive)	25.4 µM (inactive)	23.2 µM (inactive)	34 µM (inactive)	33.6 µM (inactive)	35.1 µM (inactive)	39.2 µM (inactive)	25.1 µM (inactive)	14.4 µM (inactive)	26.3 µM (inactive)	40.1 µM (inactive)	22.9 µM (inactive)	18.2 µM (inactive)
COc1ccc(-c2oc3c(CC(=O)O)cccc3c(=O)c2OC)cc1	> 100 µM (inactive)	–	> 100 µM (inactive)	> 100 µM (inactive)	> 100 µM (inactive)	> 100 µM (inactive)	> 100 µM (inactive)	> 100 µM (inactive)	–	–	–	> 100 µM (inactive)	> 100 µM (inactive)	> 100 µM (inactive)	> 100 µM (inactive)	> 100 µM (inactive)	> 100 µM (inactive)	> 100 µM (inactive)	> 100 µM (inactive)
O=C(CCCN1CCC2(CC1)CC(=O)N(N1CCCCCC1)C2=O)c1ccccc1	> 100 µM (inactive)	> 100 µM	> 100 µM (inactive)	> 100 µM (inactive)	> 100 µM (inactive)	> 100 µM (inactive)	> 100 µM (inactive)	> 100 µM (inactive)	> 100 µM (inactive)	> 100 µM (inactive)	–	> 100 µM (inactive)	> 100 µM (inactive)	> 100 µM (inactive)	> 100 µM (inactive)	> 100 µM (inactive)	> 100 µM (inactive)	> 100 µM (inactive)	> 100 µM (inactive)
CCOC(=O)/C(C(=O)c1ccc([N+](=O)[O-])cc1)=C(\NS(=O)(=O)c1cc(C)c(Cl)cc1[S-])[n+]1ccc(N(C)C)cc1	31.4 µM (inactive)	34 µM	3.83 µM (inactive)	32.3 µM (inactive)	30.1 µM (inactive)	61.7 µM (inactive)	16.7 µM (inactive)	35.5 µM (inactive)	28.3 µM (inactive)	–	–	40.3 µM (inactive)	31 µM (inactive)	30.1 µM (inactive)	–	64.1 µM (inactive)	29.4 µM (inactive)	30.3 µM (inactive)	42.8 µM (inactive)
N#C/C(=C\NC(=S)c1ccncc1)c1nc2ccccc2s1	–	> 100 µM	82.2 µM (inactive)	43.4 µM (inactive)	> 100 µM (inactive)	> 100 µM (inactive)	> 100 µM (inactive)	> 100 µM (inactive)	> 100 µM (inactive)	> 100 µM (inactive)	> 100 µM (inactive)	76.9 µM (inactive)	> 100 µM (inactive)	> 100 µM (inactive)	51.2 µM (inactive)	> 100 µM (inactive)	> 100 µM (inactive)	> 100 µM (inactive)	> 100 µM (inactive)
